Data as given in patent US20080280765A1, “Method of Promoting Enlargement Growth of Agricultural and Horticultural Crops” (priority 2006, published 2008).
Structures can show the parent of a compound that is named as a salt.

Test system: grape (species: "Italia")
Assay: Fruit enlargement test, grape, dipping treatment of bunches
Assay type: in vivo
Details: for Mean bunch weight: 7 bunches; for One berry weight: bunch weight/total berry number
Protocol: Using grape (species: “Italia”) as a subject, a fruit enlargement test was done following the experimental summary described below. The test was carried out with 7 replication. Fifteen days after the full bloom, grape bunches were dipped in a chemical solution diluted to a predetermined concentration. The treated grape bunches were dried in air and grown as they were, until the bunches were harvested 43 days after the treatment to examine the bunch weight and the total number of grape berries. Five berries were randomly selected from each grape bunch of 5 replication among the test lots, for measuring the sugar level with a hand-held refracto-sugar meter manufactured by ATAGO CO., LTD (Type number: Nl). Additionally, a drug substance of gibberellin in powder (98% purity) was used as the gibberellin, while as the prohexadione calcium salt, a 27.5% formulation (the trade name: Viviful) was used, and as the trinexapac ethyl, a 25% formulation thereof (the trade name: Moddus) was used.
Material: Grape bunch “Italia” Fully bloomed on Sep. 21, 2006; starting the treatments on Oct. 6, 2006; harvested on Dec. 18, 2006: 7 bunches per one treatment lot.
C: Cont (control lot) G: dipping treatment in gibberellin (24.5 ppm) PCA: dipping treatment in prohexadione calcium salt (20 ppm, 100 ppm) GPCA: dipping treatment in gibberellin and prohexadione calcium salt (24.5 and 20 ppm, respectively or 24.5 ppm and 100 ppm, respectively) TR: dipping treatment in trinexapac ethyl (20 ppm, 100 ppm) G+TR: dipping treatment in gibberellin and trinexapac ethyl (24.5 ppm and 20 ppm, respectively or 24.5 ppm and 100 ppm, respectively).
Herein, statistical analysis was done by the Tukey's HSD test (p=0.05). Significant difference is observed between different alphabets.

Structure (SMILES)	Mean bunch weight (20 ppm)	One berry weight (20 ppm)	Mean bunch weight (100 ppm)	One berry weight (100 ppm)
CCOC(=O)C1CC(=O)C(=C(O)C2CC2)C(=O)C1 (centres unmarked) [TR, trinexapac ethyl]	487.1 g	7.9 g	474.3 g	6.7 g
CCC(=O)C1=C(O)CC(C(=O)O)CC1=O (centres unmarked) [PCA, prohexadione calcium salt]	452.9 g	7.3 g	390.0 g	6.4 g
